We go through four compounds from US11298372B2, “Composition for ameliorating loss of hair and graying of hair, and use thereof” (National University Corporation Tokyo Medical and Dental …, priority 2016, dated 2022).

The test system of assay [1] is Col17A1. Kind of assay: Induction of COL17A1 expression in HaCat cells (Western blotting). In kind it is cell-based, human. Particulars: 48 hours. Here is the method:
HaCat cells (human epidermal keratinocyte strain) were seeded in 10% FBS-containing D-MEM medium in a 6-well plate at 1×10^5 cells per well, and apocynin was added to be 1-60 μM. After 48 hours of culturing, an anti-Col17A1 antibody was used as the primary antibody, and Western blotting was carried out. An anti-GAPDH antibody was used as the internal control. The 180 KDa band of Col17A1 and the internal control GAPDH band were quantified for their densities using an LAS-3000 luminescence image analyzer. […] HaCat cells (human epidermal keratinocyte strain) were seeded in 10% FBS-containing D-MEM medium in a 6-well plate at 1×10^5 cells per well, and ascorbic acid (Wako Pure Chemical Industries, Ltd.) was added to be 0.3-60 jag/ml. After 48 hours of culturing, an anti-Col17A1 antibody was used as the primary antibody, and Western blotting was carried out. An anti-β-tubulin antibody was used as the internal control. The 180 KDa band of Col17A1 and the internal control β-tubulin band were quantified for their densities using an LAS-3000 luminescence image analyzer. […] HaCat cells (human epidermal keratinocyte strain) were seeded in 10% FBS-containing D-MEM medium in a 6-well plate at 1×10^5 cells per well, and Marimastat (MMP inhibitor) was added to be 3 μM. After 48 hours of culturing, an anti-Col17A1 antibody was used as the primary antibody, and Western blotting was carried out. An anti-β-tubulin antibody was used as the internal control. The 180 KDa band of Col17A1 and the internal control β-tubulin band were quantified for their densities using an LAS-3000 luminescence image analyzer.

Assay [2] has as its system aged mice. Kind of assay: Hair-increasing effect in aged mice (application on the back of the neck). Particulars: 26-27-month-old female C57BL/6NCrSlc mice, 100 μl of 200 μM solution applied for 28 days, day 28. In kind it is in vivo, mouse. Here is the method: Apocynin (A727200; Tront Research Chemicals) was adjusted to the concentration of 20 mM with DMSO, and 200 LM apocynin solution (1% apocynin 20 mM, 49% water, 50% ethanol) was prepared as the solution to be applied on mice. As the control solution, 1% DMSO (Sigma Aldrich), 49% water, 50% ethanol was prepared. After an anesthetic procedure was performed on five 27-month-old and one 26-month-old female C57BL/6[…] mice, hair on the back of the neck was removed. The three mice in the control solution treatment group were applied with 100 μl of the control solution, and the apocynin solution treatment group with 100 μl of the 200 μM apocynin solution for 28 days. For the follow-ups, photo images of the representative first day (day 1) and the last day (day 28) are shown (FIG. 11).

Assay [3] has as its system aged mice. As to the kind of experiment: Comparison of the hair-increasing effects of apocynin and minoxidil in aged mice. Particulars: 17-month-old female C57BL/6NCrSIc mice, 100 μl of 200 μM solution applied for 28 days, day 14; comparator Ri-UP X5 PLUS (minoxidil 5 g/100 ml). In kind it is in vivo, mouse. Here is the method:
Apocynin (A727200; Tront Research Chemicals) was adjusted to the concentration of 20 mM with DMSO, and 200 LM apocynin solution (1% apocynin 20 mM, 49% water, 50% ethanol) was prepared as the solution to be applied on mice. As the control solution, 1% DMSO (Sigma Aldrich), 49% water, 50% ethanol was prepared. For the minoxidil solution, Ri-UP X5 PLUS® (5 g/100 ml, Taisho Pharmaceutical Co., Ltd.) was used. After six 17-month-old female C57BL/6[…] mice were anesthetized by inhalation of isoflurane (Pfizer), the hair on the back of the neck was removed. The three mice in the minoxidil treatment group were applied with 100 μl of minoxidil, and the apocynin treatment group with 100 μl of the 200 μM apocynin solution for 28 days. For the follow-ups, photo images of the representative first day (day 1) and the last day (day 28) are shown (FIG. 12).

Assay [4] relates to irradiated mice. Kind of assay: Application test on the back of irradiated mice. In kind it is in vivo, mouse. Particulars: 7-week-old male C57BL/6NCrSlc mice, 5 Gy, 10 mg/ml in DMSO 125 μl applied on the back once a day, 5 times. How it is done:
The hair on the lower back of 7-week-old male C57BL/6NCrSlc mice was removed. Sivelestat was dissolved in DMSO to be 10 mg/ml and 125 μl (=[…]) thereof was applied on the back of the sivelestat group mice. On the back of the control group mice, 125 μl of DMSO was applied. After application on the back, the skin of the two groups of mice (day 0) was irradiated with a low voltage radiation of 5 Gy using CABINET X-RAY SYSTEM (Faxitron X-ray Corporation). Up to day 4, the same medicinal agents described above were applied on the back once a day (for a total of 5 times), and weekly follow-ups were carried out after that.

The test system of assay [5] is irradiated mice. Kind of assay: Test of intradermal administration in irradiated mice. Particulars: 7-week-old male C57BL/6NCrSlc mice, 5 Gy, 5 mg/ml in DMSO 200 μl (1000 μg) intradermally once a day, 5 times. It is filed as in vivo, mouse. Here is the method:
The hair on the lower back of 7-week-old male C57BL/6NCrSlc mice was removed. Sivelestat was dissolved in DMSO to be 5 mg/ml and 200 μl (=1000 μg) thereof was administered intradermally on back of the sivelestat group mice. On the back of the control group mice, 200 μl of DMSO was administered intradermally. After intradermal administration, the skin of the two groups of mice (day 0) was irradiated with a low voltage radiation of 5 Gy using CABINET X-RAY SYSTEM (Faxitron X-ray corporation). Up to day 4, the same medicinal agents described above were intradermally administered on the back once a day (for a total of 5 times), and weekly follow-ups were carried out after that.

Turning to `CNC(=O)[C@@H](NC(=O)[C@H](CC(C)C)[C@H](O)C(=O)NO)C(C)(C)C` [Marimastat], the “Col17A1 expression (180 KDa band, Western blotting)” value (“Col17A1 expression” for short) in assay [1] (Marimastat 3 μM, β-tubulin internal control) is listed as “increase of Col17A1 was observed”.
In the case of `COc1cc(C(C)=O)ccc1O` [apocynin], the “hair growth effect versus control solution” value in assay [2] was “significant hair growth effect compared to the control group”. Further, the “Col17A1 expression” value in assay [1] (apocynin 1-60 μM, GAPDH internal control) was “increase of Col17A1 was observed along with the increase of apocynin”. The “hair growth effect versus minoxidil” value in assay [3] was “significant hair growth effect compared to the minoxidil-administered group”.
Turning to `O=C1O[C@H]([C@@H](O)CO)C(O)=C1O` [ascorbic acid], the “Col17A1 expression” value in assay [1] (ascorbic acid 0.3-60 jag/ml, β-tubulin internal control) was “increase of Col17A1 was observed along with the increase of ascorbic acid”.
As to `CC(C)(C)C(=O)Oc1ccc(S(=O)(=O)Nc2ccccc2C(=O)NCC(=O)[O-])cc1.O.O.O.O.[Na+]` [Sivelestat, Monosodium N-{2-[4-(2,2-dimethylpropanoyloxy)-phenylsulfonylamino]benzoyl}aminoacetate tetrahydrate], the “hair growth versus control group” value in assay [4] is listed as “tendency to grow faster”; in assay [5] it was “tendency to grow more”. Moreover, the graying result in assay [4] (14 weeks and 28 weeks) is “suppression of graying was seen”; in assay [5] (14 weeks and 28 weeks) it was “suppression of graying was seen”.
